Data as given in patent US20240158446A1, “CYCLIC COMPOUND HAVING SELECTIVE INHIBITORY ACTION ON KRAS OVER HRAS AND NRAS” (CHUGAI SEIYAKU KABUSHIKI KAISHA, priority 2021, published 2024).
*1 amine or outer side, *2 acyl side, *3 side chain or, on linkers, in order; H or OH if unused. Where a SMILES comes first, the peptide text is derived from it. Bridges are numbered along the chain shown (N, C = ends). [ ]: non-standard residue; d: D form. The star is where a group is joined. hPhe(3,5-F2-4-CF3) = N[C@@H](CCc1cc(F)c(C(F)(F)F)c(F)c1)C(=O)O; NPrPhe(4-CF3) = CCCN[C@@H](Cc1ccc(C(F)(F)F)cc1)C(=O)O; NMeAbu(4,4,4-F3) = CN[C@@H](CC(F)(F)F)C(=O)O; X13 = O=C([C@@H](N[*:1])C1CC(F)(F)C1)[*:2]; NMeGly(cPent) = CN[C@H](C(=O)O)C1CCCC1; Ac4c(3,3-F2) = NC1(C(=O)O)CC(F)(F)C1; Nva(3-Et) = CCC(CC)[C@H](N)C(=O)O; αMeI = CC[C@H](C)[C@](C)(N)C(=O)O; NMeD = CN[C@@H](CC(=O)O)C(=O)O; Ac4c(3-oxa) = NC1(C(=O)O)COC1; NMeL = CN[C@@H](CC(C)C)C(=O)O; Morpholide = C1CN(*)CCO1; Ac5c = NC1(C(=O)O)CCCC1; Aze = O=C(O)[C@@H]1CCN1; Sar = CNCC(=O)O

Tests used:
[1] = target: GDP-bound KRAS wild-type protein (Homo sapiens, UniProt P01116); experiment: Binding to KRAS by surface plasmon resonance (SPR), Single Cycle Kinetics; details: SPR Single Cycle Kinetics, GDP-bound KRAS wild-type protein, 1:1 binding model; read-out: KRAS KD
[2] = target: GDP-bound NRAS wild-type protein (Homo sapiens, UniProt P01111); experiment: Binding to NRAS by surface plasmon resonance (SPR), Single Cycle Kinetics; details: SPR, GDP-bound NRAS wild-type protein vs GDP-bound KRAS wild-type protein
[3] = target: GDP-bound HRAS wild-type protein (Homo sapiens, UniProt P01112); experiment: Binding to HRAS by surface plasmon resonance (SPR), Single Cycle Kinetics; details: SPR, GDP-bound HRAS wild-type protein vs GDP-bound KRAS wild-type protein
GDP-bound HRAS wild-type protein, sequence (P01112 whole entry): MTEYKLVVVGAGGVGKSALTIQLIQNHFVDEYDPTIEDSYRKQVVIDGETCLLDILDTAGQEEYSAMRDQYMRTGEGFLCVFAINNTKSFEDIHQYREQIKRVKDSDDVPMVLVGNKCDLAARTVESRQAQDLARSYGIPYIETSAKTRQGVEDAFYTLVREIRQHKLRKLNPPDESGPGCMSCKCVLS

GDP-bound KRAS wild-type protein, sequence (P01116 whole entry): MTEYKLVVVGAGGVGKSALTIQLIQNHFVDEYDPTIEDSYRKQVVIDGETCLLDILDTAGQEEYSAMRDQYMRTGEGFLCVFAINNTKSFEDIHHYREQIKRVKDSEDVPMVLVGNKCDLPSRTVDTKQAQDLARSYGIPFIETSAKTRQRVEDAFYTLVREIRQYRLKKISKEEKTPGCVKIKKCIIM
GDP-bound NRAS wild-type protein, sequence (P01111 whole entry): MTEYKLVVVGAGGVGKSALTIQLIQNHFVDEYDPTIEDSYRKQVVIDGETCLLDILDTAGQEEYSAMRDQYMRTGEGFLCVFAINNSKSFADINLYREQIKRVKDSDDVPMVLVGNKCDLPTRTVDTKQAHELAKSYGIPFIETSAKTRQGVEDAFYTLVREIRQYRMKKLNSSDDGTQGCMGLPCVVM

Structure (SMILES) | Kd [1] | NRAS/KRAS (ratio of KD value with respect to NRAS to KD value with respect to KRAS) [2] | HRAS/KRAS (ratio of KD value with respect to HRAS to KD value with respect to KRAS) [3]
CCCN1C(=O)CN(C)C(=O)CN(C)C(=O)[C@H]([C@@H](C)CC)NC(=O)[C@H](CC(C)C)N(C)C(=O)C[C@@H](C(=O)N2CCOCC2)N(C)C(=O)[C@H](C2CCCC2)N(C)C(=O)C2(COC2)NC(=O)[C@@H]2CCCN2C(=O)[C@H](CCc2cc(F)c(C(F)(F)F)c(F)c2)NC(=O)CN(C)C(=O)[C@@H]1Cc1ccc(C(F)(F)F)cc1 [PP0765] ([NMeL]I[Sar][Sar][NPrPhe(4-CF3)][Sar][hPhe(3,5-F2-4-CF3)]P[Ac4c(3-oxa)][NMeGly(cPent)][NMeD]-Morpholide; lactam N-11) | 310 pM | B (a compound having 3 or more and less than 10 is denoted as B) | C (A compound having a KD ratio of 0.1 or more and less than 3 is denoted as C)
CCCN1C(=O)CN(C)C(=O)CN(C)C(=O)[C@H]([C@@H](C)CC)NC(=O)[C@H](CC(C)C)N(C)C(=O)C[C@@H](C(=O)N2CCOCC2)N(C)C(=O)[C@H](C2CCCC2)N(C)C(=O)C2(CC(F)(F)C2)NC(=O)[C@@H]2CCCN2C(=O)[C@H](CCc2cc(F)c(C(F)(F)F)c(F)c2)NC(=O)CN(C)C(=O)[C@@H]1Cc1ccc(C(F)(F)F)cc1 [PP0766] ([NMeL]I[Sar][Sar][NPrPhe(4-CF3)][Sar][hPhe(3,5-F2-4-CF3)]P[Ac4c(3,3-F2)][NMeGly(cPent)][NMeD]-Morpholide; lactam N-11) | 96 pM | B (a compound having 3 or more and less than 10 is denoted as B) | B (a compound having 3 or more and less than 10 is denoted as B)
CCCN1C(=O)CN(C)C(=O)CN(C)C(=O)[C@H]([C@@H](C)CC)NC(=O)[C@H](CC(C)C)N(C)C(=O)C[C@@H](C(=O)N2CCOCC2)N(C)C(=O)[C@H](CC(F)(F)F)N(C)C(=O)C2(CCCC2)NC(=O)[C@@H]2CCCN2C(=O)[C@H](CCc2cc(F)c(C(F)(F)F)c(F)c2)NC(=O)CN(C)C(=O)[C@@H]1Cc1ccc(C(F)(F)F)cc1 [PP0767] ([NMeL]I[Sar][Sar][NPrPhe(4-CF3)][Sar][hPhe(3,5-F2-4-CF3)]P[Ac5c][NMeAbu(4,4,4-F3)][NMeD]-Morpholide; lactam N-11) | 1900 pM | B (a compound having 3 or more and less than 10 is denoted as B) | C (A compound having a KD ratio of 0.1 or more and less than 3 is denoted as C)
CCCN1C(=O)CN(C)C(=O)CN(C)C(=O)[C@H](C(CC)CC)NC(=O)[C@H](CC(C)C)N(C)C(=O)C[C@@H](C(=O)N2CCOCC2)N(C)C(=O)[C@H](C2CCCC2)N(C)C(=O)C2(CCCC2)NC(=O)[C@@H]2CCCN2C(=O)[C@H](CCc2cc(F)c(C(F)(F)F)c(F)c2)NC(=O)CN(C)C(=O)[C@@H]1Cc1ccc(C(F)(F)F)cc1 [PP0768] ([NMeL][Nva(3-Et)][Sar][Sar][NPrPhe(4-CF3)][Sar][hPhe(3,5-F2-4-CF3)]P[Ac5c][NMeGly(cPent)][NMeD]-Morpholide; lactam N-11) | 970 pM | B (a compound having 3 or more and less than 10 is denoted as B) | C (A compound having a KD ratio of 0.1 or more and less than 3 is denoted as C)
CCCN1C(=O)CN(C)C(=O)CN(C)C(=O)[C@H](C2CC(F)(F)C2)NC(=O)[C@H](CC(C)C)N(C)C(=O)C[C@@H](C(=O)N2CCOCC2)N(C)C(=O)[C@H](C2CCCC2)N(C)C(=O)C2(CCCC2)NC(=O)[C@@H]2CCCN2C(=O)[C@H](CCc2cc(F)c(C(F)(F)F)c(F)c2)NC(=O)CN(C)C(=O)[C@@H]1Cc1ccc(C(F)(F)F)cc1 [PP0769] ([NMeL][X13][Sar][Sar][NPrPhe(4-CF3)][Sar][hPhe(3,5-F2-4-CF3)]P[Ac5c][NMeGly(cPent)][NMeD]-Morpholide; lactam N-11) | 210 pM | B (a compound having 3 or more and less than 10 is denoted as B) | C (A compound having a KD ratio of 0.1 or more and less than 3 is denoted as C)
CCCN1C(=O)CN(C)C(=O)[C@@H]2CCN2C(=O)[C@H]([C@@H](C)CC)NC(=O)[C@H](CC(C)C)N(C)C(=O)C[C@@H](C(=O)N2CCOCC2)N(C)C(=O)[C@H](C2CCCC2)N(C)C(=O)C2(CCCC2)NC(=O)[C@@H]2CCCN2C(=O)[C@H](CCc2cc(F)c(C(F)(F)F)c(F)c2)NC(=O)CN(C)C(=O)[C@@H]1Cc1ccc(C(F)(F)F)cc1 [PP0770] ([NMeL]I[Aze][Sar][NPrPhe(4-CF3)][Sar][hPhe(3,5-F2-4-CF3)]P[Ac5c][NMeGly(cPent)][NMeD]-Morpholide; lactam N-11) | 840 pM | B (a compound having 3 or more and less than 10 is denoted as B) | B (a compound having 3 or more and less than 10 is denoted as B)
CCCN1C(=O)CN(C)C(=O)[C@@H]2CCN2C(=O)[C@H]([C@@H](C)CC)NC(=O)[C@H](CC(C)C)N(C)C(=O)C[C@@H](C(=O)N2CCOCC2)N(C)C(=O)[C@H](C2CCCC2)N(C)C(=O)[C@](C)([C@@H](C)CC)NC(=O)[C@@H]2CCCN2C(=O)[C@H](CCc2cc(F)c(C(F)(F)F)c(F)c2)NC(=O)CN(C)C(=O)[C@@H]1Cc1ccc(C(F)(F)F)cc1 [PP0774] ([NMeL]I[Aze][Sar][NPrPhe(4-CF3)][Sar][hPhe(3,5-F2-4-CF3)]P[αMeI][NMeGly(cPent)][NMeD]-Morpholide; lactam N-11) | 17000 pM | B (a compound having 3 or more and less than 10 is denoted as B) | B (a compound having 3 or more and less than 10 is denoted as B)
CCCN1C(=O)CN(C)C(=O)[C@@H]2CCN2C(=O)[C@H]([C@@H](C)CC)NC(=O)[C@H](CC(C)C)N(C)C(=O)C[C@@H](C(=O)N2CCOCC2)N(C)C(=O)[C@H](C2CCCC2)N(C)C(=O)C2(COC2)NC(=O)[C@@H]2CCCN2C(=O)[C@H](CCc2cc(F)c(C(F)(F)F)c(F)c2)NC(=O)CN(C)C(=O)[C@@H]1Cc1ccc(C(F)(F)F)cc1 [PP0782] ([NMeL]I[Aze][Sar][NPrPhe(4-CF3)][Sar][hPhe(3,5-F2-4-CF3)]P[Ac4c(3-oxa)][NMeGly(cPent)][NMeD]-Morpholide; lactam N-11) | 2300 pM | B (a compound having 3 or more and less than 10 is denoted as B) | B (a compound having 3 or more and less than 10 is denoted as B)
CCCN1C(=O)CN(C)C(=O)[C@@H]2CCN2C(=O)[C@H]([C@@H](C)CC)NC(=O)[C@H](CC(C)C)N(C)C(=O)C[C@@H](C(=O)N2CCOCC2)N(C)C(=O)[C@H](C2CCCC2)N(C)C(=O)C2(CC(F)(F)C2)NC(=O)[C@@H]2CCCN2C(=O)[C@H](CCc2cc(F)c(C(F)(F)F)c(F)c2)NC(=O)CN(C)C(=O)[C@@H]1Cc1ccc(C(F)(F)F)cc1 [PP0783] ([NMeL]I[Aze][Sar][NPrPhe(4-CF3)][Sar][hPhe(3,5-F2-4-CF3)]P[Ac4c(3,3-F2)][NMeGly(cPent)][NMeD]-Morpholide; lactam N-11) | 850 pM | B (a compound having 3 or more and less than 10 is denoted as B) | B (a compound having 3 or more and less than 10 is denoted as B)
